Laboratory results published in patent EP1541694A1, “Methods of identifying, selecting and/or characterizing compounds which modulate the activity of a Src family kinase” (Sirenade Pharmaceuticals AG, priority 2003, dated 2005).

What was measured:
[1] = test system: Src-YF expressing ZM77 cell lines; test: Suppression of tet-induced phenotype changes, evaluated by eye/microscope, normal cell culture plates; format: cell-based, human; conditions: adherent, serum-containing medium
Method: (§1) Phenotype changes -tet → +tet were evaluated in 24-well plates (Nunc; cat.no. 143982) under the following several different growth conditions to identify the strongest possible response (Δpt(-tet→+tet)max) 1. full (10% serum containing) growth medium a) without any growth factor supplement (-), b) with epidermal growth factor (EGF; 100ng/ml) (cat.no. 115, Research Diagnostics Inc. (RDI), Flanders, NJ, USA) or c) platelet derived growth factor type BB (PDGF-BB; 30ng/ml) (cat.no. 114b, RDI) or d) hepatocyte growth factor (HGF; 20ng/ml) (RDI, cat.no.300-010), or 2. serum-free medium a) - or b) +EGF or c) +PDGF or d) +HGF. In all cases, cells were first seeded into standard 24-well or 96-well plates (Nunc) in full growth medium. The cell number seeded per well was also varied to identify the most suitable cell densities producing Δpt(-tet→+tet)max. […]
(§2) To that end, the test compounds PP1-Chr., PP2 (cat.no. 529573, Calbiochem) and SU6656 (cat.no. 572635, Calbiochem) (see Fig.9p for chemical structures) were individually added to the cells together with tet, and the development of the phenotype changes in the presence of these compounds was monitored subsequently in direct comparison with cells that received no compound or only vehicle (0.2% DMSO) together with tet induction. […]

[2] = test system: Src-TQ/YF expressing ZM170 cell lines; test: as above; format: cell-based, human; conditions: adherent, PP1-Chr. and PP2 shown as combination 10µM + 5µM
Method: as §1, §2

[3] = test system: Src-KA expressing ZM76 cell lines; test: as above; format: cell-based, human; conditions: adherent, serum-containing medium + EGF, PP1-Chr. and PP2 shown as combination
Method: as §1, §2

[4] = test system: Src-TQ expressing ZM78 cell lines; test: as above; format: cell-based, human; conditions: adherent
Method: as §1, §2

[5] = test system: Src-TQ/YF expressing cell line ZM170.21; test: Suppression of tet-induced phenotype changes (cell scattering) in suspension, Ultra Low Attachment plates; format: cell-based, human; conditions: ZM170.21 (Src-TQ/YF) in suspension, Ultralow Attachment Plates
Method: Cells were seeded into 24-well or 96-well "Ultra Low Attachment" plates (cat.no.: 3473, Costar Corning Corp., Acton, MA, USA). These plates are coated with a covalently bound hydrogel layer that prevents cellular attachment to the polystyrene surface of the wells. As the cells were not attached to these wells, a medium change was impossible here. However, the phenotypes were tested in full serum-containing medium in the absence or presence of EGF, PDGF-BB or HGF as detailed above. Tet-induction was also started the day after seeding.
Largely irrespective of the cell numbers per well, the cells of all cell lines were in suspension and formed one or few very condensed/compact, opaque, rod-, disc- or kidney-shaped aggregates with a smooth surface, in which individual cells could not be discerned. Phenotype changes became apparent ~24 h after tet induction in ZM77 and ZM170 cell lines only, and Δpt(-tet →+tet)max was reached after ~2 days. In these cell lines Src-YF or Src-TQ/YF expression, respectively, induces scattering of the cells. Many cells are floating in the medium individually or in small clusters and the remaining large aggregate(s) are irregular-shaped and rather loose than compact; individual cells can easily be discerned and thus, the surfaces of these aggregates are rough as with bunches of grapes (Fig.14a,b). This biological response was readily observed with or without any of the above growth factors, wherefore normal growth medium without any additional growth factor was subsequently used in this assay type.
To that end, the test compounds PP1-Chr., SU6656 and PP2 were individually added to the cells together with tet, and the development of the phenotype changes in the presence of these compounds was monitored subsequently in direct comparison with tet-induced cells that received no compound (Fig.14c-j). The compounds were also added to the cells without tet-induction of Src/ Src mutant expression as controls for non-specific/ toxicity effects. The experiments were performed with several ZM77 cell lines.

[6] = test system: Src family kinases when they carry the respective TQ mutations; conditions: cited from earlier work

## CC(C)(C)n1nc(-c2ccc(Cl)cc2)c2c(N)ncnc21 [PP2]
[1]
  suppression of tet-induced phenotype changes: partially suppressed
[2]
  suppression of tet-induced phenotype changes: ineffective
[3]
  suppression of tet-induced phenotype changes: not able to suppress
[4]
  suppression of tet-induced phenotype changes: ineffective
[5]
  suppression of tet-induced phenotype (cell scattering): largely ineffective
[6]
  inhibition of Src family kinases carrying the TQ mutations: do not inhibit
